From ChEMBL document CHEMBL5465560, “Selectivity Literature for EUbOPEN Chemogenomic Library” (2024)

Experiments:
[1] = target: MAP kinase-interacting serine/threonine-protein kinase 2 (Homo sapiens, UniProt Q9HBH9); assay: Selectivity interaction (KinomeScan (DiscoverX)) EUB0001049a MKNK2; conditions: at 1 µM
[2] = Selectivity interaction (PWWP, WD40, and Tudor domain panel (DSLS measurements, literature)) EUB0000270b SCML2
[3] = target: Activin receptor type-2A (Homo sapiens) (UniProt P27037); assay: Selectivity interaction (LanthaScreen Eu Kinase Binding Assay) EUB0001632a ACVR2A; conditions: at 10 µM
[4] = target: G protein-coupled receptor kinase 5 (Homo sapiens, UniProt P34947); assay: Selectivity interaction (Kinase panel (Z-LYTE Assay)) EUB0001632a GRK5; conditions: at 10 µM
Sequence of G protein-coupled receptor kinase 5 (P34947 whole entry, looked up): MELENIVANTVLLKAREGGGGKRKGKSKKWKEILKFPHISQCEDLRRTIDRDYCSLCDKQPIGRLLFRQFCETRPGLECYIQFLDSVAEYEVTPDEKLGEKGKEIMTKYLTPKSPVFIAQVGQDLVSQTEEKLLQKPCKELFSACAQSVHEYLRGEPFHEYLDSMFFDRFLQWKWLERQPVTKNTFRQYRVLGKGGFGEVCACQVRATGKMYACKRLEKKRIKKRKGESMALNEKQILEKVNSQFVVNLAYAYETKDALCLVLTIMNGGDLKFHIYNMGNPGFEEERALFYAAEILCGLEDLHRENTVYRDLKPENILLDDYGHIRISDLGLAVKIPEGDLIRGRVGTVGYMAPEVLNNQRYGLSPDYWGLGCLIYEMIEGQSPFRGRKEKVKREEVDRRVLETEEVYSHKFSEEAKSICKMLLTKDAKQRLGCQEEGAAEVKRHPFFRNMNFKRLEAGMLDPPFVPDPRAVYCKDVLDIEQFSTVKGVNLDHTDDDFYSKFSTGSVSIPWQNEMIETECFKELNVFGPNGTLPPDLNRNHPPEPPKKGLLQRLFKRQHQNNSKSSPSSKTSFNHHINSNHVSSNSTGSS

[5] = target: T1, Protein arginine N-methyltransferase 7 (Homo sapiens) (UniProt Q9NVM4); assay: Selectivity interaction (Methyltransferase screen (radiometric assays, panel of 8 PRMTs, 21 protein lysine methyltransferases, 3 DNA methyltransferases, and one RNA methyltransferase)) EUB0000272b PRMT7
T1 sequence (whole entry): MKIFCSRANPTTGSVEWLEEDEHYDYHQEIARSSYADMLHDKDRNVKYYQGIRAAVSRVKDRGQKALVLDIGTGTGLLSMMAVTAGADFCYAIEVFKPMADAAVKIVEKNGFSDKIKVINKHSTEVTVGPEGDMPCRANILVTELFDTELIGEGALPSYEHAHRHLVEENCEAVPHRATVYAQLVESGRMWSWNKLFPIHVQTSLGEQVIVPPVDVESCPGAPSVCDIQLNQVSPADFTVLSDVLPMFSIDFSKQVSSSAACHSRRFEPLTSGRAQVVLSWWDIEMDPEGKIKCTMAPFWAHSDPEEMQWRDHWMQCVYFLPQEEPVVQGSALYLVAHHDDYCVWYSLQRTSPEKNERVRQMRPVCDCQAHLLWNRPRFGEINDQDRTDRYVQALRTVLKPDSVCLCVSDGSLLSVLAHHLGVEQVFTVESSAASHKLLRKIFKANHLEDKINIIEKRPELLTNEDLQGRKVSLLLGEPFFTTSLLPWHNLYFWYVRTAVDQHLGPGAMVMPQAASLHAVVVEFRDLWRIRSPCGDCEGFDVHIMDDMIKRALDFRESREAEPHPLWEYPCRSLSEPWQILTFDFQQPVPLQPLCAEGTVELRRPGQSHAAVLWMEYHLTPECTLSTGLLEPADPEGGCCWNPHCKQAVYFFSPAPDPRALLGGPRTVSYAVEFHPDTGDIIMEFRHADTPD

[6] = target: Serine/threonine-protein kinase SIK1 (Homo sapiens) (UniProt P57059); conditions: at 10 µM
[7] = target: Calcium/calmodulin-dependent protein kinase kinase 2 (Homo sapiens) (UniProt Q96RR4); assay: Selectivity interaction (KinomeScan (DiscoverX)) EUB0000595a CAMKK2; conditions: at 10 µM
Sequence of Calcium/calmodulin-dependent protein kinase kinase 2 (Homo sapiens) (Q96RR4 2-588 limits assumed): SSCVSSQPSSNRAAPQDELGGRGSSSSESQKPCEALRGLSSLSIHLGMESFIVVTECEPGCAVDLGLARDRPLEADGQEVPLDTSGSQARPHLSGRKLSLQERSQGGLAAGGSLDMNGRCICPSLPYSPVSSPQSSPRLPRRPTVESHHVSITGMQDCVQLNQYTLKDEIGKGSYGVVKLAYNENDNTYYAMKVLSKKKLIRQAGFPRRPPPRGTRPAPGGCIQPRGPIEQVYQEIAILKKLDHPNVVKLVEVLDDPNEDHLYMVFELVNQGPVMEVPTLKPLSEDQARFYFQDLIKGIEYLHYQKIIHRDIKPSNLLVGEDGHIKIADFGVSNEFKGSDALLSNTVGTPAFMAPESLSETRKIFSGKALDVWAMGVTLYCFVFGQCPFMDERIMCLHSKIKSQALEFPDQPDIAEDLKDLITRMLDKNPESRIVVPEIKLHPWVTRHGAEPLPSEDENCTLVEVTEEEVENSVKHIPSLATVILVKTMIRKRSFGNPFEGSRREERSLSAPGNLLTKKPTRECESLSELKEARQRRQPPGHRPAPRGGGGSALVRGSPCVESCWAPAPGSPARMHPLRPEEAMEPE

[8] = target: Serine/threonine-protein kinase pim-2 (Homo sapiens, UniProt Q9P1W9); assay: Selectivity interaction (KinomeScan (DiscoverX)) EUB0000229b PIM2; conditions: at 10 µM
Sequence of Serine/threonine-protein kinase pim-2 (Q9P1W9 whole entry, looked up): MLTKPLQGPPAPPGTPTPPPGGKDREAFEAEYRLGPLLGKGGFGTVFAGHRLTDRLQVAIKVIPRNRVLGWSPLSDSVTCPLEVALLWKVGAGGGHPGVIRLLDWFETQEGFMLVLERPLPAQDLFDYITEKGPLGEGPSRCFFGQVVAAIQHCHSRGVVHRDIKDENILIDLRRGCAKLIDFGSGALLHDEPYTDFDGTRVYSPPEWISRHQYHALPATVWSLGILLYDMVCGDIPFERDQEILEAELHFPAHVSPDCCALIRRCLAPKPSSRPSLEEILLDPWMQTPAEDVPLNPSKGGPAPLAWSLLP

[9] = target: MAP kinase-interacting serine/threonine-protein kinase 1 (Homo sapiens) (UniProt Q9BUB5); assay: Selectivity interaction (ProQinase) EUB0000171b MKNK1
Sequence of MAP kinase-interacting serine/threonine-protein kinase 1 (Homo sapiens) (Q9BUB5 whole entry, looked up): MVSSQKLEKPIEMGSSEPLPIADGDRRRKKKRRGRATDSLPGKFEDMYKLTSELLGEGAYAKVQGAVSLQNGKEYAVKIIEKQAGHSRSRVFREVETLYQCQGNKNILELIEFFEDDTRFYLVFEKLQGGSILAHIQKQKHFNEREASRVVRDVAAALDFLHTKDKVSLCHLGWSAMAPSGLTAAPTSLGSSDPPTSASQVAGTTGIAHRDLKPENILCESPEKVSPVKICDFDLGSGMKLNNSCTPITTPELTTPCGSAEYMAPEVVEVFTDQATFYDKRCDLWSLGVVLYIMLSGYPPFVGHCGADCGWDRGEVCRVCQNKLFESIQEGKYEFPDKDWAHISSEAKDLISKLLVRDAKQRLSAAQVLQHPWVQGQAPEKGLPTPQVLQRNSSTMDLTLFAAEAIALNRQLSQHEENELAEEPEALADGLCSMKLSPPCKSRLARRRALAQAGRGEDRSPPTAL

[10] = target: Tyrosine-protein kinase Blk (Homo sapiens) (UniProt P51451); assay: Selectivity interaction (ProQinase) EUB0000171b BLK
Sequence of Tyrosine-protein kinase Blk (Homo sapiens) (P51451 2-505 limits assumed): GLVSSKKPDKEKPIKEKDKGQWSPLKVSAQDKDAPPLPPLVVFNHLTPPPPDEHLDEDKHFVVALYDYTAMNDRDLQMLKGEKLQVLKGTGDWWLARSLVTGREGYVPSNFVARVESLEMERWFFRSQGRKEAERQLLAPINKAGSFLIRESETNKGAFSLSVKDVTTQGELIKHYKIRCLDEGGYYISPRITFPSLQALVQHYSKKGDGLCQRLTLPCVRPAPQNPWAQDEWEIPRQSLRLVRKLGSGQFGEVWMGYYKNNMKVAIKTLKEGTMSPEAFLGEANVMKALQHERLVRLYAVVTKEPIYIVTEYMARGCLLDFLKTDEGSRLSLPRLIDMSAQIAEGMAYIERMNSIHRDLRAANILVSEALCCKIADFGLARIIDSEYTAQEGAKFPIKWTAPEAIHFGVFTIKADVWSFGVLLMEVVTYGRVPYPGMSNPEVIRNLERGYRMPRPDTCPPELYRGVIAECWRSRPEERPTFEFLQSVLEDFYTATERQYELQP

[11] = target: Cyclin-dependent kinase 7 (Homo sapiens, UniProt P50613); assay: Selectivity interaction (KinomeScan (DiscoverX)) EUB0000092b CDK7; conditions: at 10 µM
Sequence of Cyclin-dependent kinase 7 (P50613 whole entry): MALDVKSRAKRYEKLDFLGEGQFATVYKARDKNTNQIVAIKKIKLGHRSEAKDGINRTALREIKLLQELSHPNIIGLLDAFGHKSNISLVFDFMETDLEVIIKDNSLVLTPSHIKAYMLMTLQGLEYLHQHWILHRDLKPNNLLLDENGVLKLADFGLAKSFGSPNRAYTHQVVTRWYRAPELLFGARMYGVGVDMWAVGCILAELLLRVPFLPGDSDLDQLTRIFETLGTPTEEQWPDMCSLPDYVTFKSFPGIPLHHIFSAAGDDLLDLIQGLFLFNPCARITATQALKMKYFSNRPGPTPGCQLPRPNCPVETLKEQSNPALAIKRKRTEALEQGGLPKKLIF

[12] = target: T2, Dual specificity tyrosine-phosphorylation-regulated kinase 2 (Homo sapiens) (UniProt Q92630); assay: Selectivity interaction (KinomeScan (DiscoverX)) EUB0000092b DYRK2; conditions: at 10 µM
T2 sequence (whole entry): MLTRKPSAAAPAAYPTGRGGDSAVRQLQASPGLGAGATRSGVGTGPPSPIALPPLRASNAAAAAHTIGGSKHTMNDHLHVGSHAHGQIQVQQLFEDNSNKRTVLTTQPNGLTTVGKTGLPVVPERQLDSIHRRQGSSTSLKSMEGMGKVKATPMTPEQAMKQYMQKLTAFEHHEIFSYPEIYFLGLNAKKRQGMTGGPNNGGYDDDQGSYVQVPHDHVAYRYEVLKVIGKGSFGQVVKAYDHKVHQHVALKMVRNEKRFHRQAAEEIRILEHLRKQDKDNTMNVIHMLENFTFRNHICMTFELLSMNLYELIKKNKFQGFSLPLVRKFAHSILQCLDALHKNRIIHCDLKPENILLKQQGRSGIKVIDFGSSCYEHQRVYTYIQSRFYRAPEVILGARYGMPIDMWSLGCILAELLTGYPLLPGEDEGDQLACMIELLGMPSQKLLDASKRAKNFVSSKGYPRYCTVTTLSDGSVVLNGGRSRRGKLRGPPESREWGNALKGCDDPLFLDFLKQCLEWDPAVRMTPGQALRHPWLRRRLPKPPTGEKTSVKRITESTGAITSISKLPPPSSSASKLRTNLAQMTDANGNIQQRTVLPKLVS

[13] = target: ALK tyrosine kinase receptor (Homo sapiens, UniProt Q9UM73); assay: Selectivity interaction (KinomeScan (DiscoverX)) EUB0000092b ALK; conditions: at 10 µM
[14] = target: Phosphatidylinositol 4-phosphate 3-kinase C2 domain-containing subunit beta (Homo sapiens) (UniProt O00750); assay: Selectivity interaction (KinomeScan (DiscoverX)) EUB0000045b PIK3C2B
Sequence of Phosphatidylinositol 4-phosphate 3-kinase C2 domain-containing subunit beta (Homo sapiens) (O00750 whole entry, the tested form may be a part): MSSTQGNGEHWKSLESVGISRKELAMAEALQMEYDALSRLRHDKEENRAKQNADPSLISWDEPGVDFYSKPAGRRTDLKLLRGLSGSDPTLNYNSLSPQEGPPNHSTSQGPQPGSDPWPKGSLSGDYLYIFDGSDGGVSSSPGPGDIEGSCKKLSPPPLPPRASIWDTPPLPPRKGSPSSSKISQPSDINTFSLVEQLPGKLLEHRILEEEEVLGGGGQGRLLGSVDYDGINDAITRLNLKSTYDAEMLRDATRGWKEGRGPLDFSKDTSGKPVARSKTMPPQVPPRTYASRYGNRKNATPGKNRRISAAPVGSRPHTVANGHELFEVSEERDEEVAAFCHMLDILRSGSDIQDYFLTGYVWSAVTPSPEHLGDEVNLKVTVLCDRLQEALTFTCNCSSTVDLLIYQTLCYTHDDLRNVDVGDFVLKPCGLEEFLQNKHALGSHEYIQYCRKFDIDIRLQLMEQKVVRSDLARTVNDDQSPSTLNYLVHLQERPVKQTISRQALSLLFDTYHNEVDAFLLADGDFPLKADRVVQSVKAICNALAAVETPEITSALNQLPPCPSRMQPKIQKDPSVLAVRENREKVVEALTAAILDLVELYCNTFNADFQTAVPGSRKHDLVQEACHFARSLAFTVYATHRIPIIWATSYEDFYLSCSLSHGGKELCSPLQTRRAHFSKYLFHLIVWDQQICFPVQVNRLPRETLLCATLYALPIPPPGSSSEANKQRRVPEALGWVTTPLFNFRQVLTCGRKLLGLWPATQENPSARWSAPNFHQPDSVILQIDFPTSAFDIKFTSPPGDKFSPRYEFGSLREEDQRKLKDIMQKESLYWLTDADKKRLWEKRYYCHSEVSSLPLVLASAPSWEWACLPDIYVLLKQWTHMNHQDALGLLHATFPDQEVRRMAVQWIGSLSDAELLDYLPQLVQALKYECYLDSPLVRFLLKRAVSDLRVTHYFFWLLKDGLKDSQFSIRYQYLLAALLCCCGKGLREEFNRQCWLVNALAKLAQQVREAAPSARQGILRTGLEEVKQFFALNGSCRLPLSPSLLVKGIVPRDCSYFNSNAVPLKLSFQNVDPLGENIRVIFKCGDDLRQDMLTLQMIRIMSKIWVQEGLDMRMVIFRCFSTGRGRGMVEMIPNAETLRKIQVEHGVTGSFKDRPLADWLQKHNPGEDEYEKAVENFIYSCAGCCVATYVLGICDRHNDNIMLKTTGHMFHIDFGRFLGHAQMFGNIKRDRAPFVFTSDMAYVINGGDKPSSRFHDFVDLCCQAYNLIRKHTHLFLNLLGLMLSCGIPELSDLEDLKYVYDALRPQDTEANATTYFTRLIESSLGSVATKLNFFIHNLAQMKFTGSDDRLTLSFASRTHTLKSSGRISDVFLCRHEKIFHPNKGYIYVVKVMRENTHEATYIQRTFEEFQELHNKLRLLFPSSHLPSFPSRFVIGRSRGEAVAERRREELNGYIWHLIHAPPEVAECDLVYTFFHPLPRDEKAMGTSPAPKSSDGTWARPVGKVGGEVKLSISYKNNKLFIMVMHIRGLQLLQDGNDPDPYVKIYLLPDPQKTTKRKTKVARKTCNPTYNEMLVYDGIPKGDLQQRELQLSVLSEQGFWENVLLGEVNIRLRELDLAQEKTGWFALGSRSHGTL

[15] = target: Cyclin-dependent kinase 13 (Homo sapiens, UniProt Q14004); assay: Selectivity interaction (KinomeScan (DiscoverX)) EUB0000618a CDK13; conditions: at 10 µM
[16] = target: T3, Testis-specific serine/threonine-protein kinase 1 (Homo sapiens) (UniProt Q9BXA7); assay: Selectivity interaction (KinomeScan (DiscoverX)) EUB0000607a TSSK1A; conditions: at 10 µM
T3 sequence (whole entry): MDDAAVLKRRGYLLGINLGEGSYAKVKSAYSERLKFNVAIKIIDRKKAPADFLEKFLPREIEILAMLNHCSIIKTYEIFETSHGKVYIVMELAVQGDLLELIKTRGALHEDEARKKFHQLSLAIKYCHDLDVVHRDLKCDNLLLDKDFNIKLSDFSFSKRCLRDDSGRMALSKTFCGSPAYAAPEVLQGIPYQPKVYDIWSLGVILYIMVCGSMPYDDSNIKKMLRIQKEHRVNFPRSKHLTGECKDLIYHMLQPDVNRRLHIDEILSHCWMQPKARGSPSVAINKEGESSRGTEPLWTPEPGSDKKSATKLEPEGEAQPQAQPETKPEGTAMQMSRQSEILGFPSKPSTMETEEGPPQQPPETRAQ

[17] = target: Glycogen synthase kinase-3 alpha (Homo sapiens, UniProt P49840); assay: Selectivity interaction (Kinase panel (KiNativ target engagement assay in Jurkat cells)) EUB0001635a GSK3A; format: cell-based; conditions: Selectivity number of off-targets 0.0, Selectivity number of targets 233.0, Source Knowledge https://www.sciencedirect.com/science/article/pii/S2451945619300674?via%3Dihub, at 1 µM
Sequence of Glycogen synthase kinase-3 alpha (P49840 2-483 limits assumed): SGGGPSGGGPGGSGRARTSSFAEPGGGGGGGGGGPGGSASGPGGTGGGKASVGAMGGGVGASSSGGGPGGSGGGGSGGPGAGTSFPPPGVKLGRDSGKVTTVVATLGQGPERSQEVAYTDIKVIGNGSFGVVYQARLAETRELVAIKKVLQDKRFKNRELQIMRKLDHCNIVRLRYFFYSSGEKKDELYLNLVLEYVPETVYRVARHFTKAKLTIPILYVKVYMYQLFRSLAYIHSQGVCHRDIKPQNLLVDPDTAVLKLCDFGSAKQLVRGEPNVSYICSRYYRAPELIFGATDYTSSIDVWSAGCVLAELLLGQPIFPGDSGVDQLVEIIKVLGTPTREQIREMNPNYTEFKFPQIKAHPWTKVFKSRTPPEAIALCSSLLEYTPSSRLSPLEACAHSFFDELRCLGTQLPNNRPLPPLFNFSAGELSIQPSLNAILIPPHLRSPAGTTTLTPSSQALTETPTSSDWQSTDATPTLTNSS

In the case of COc1cc(Nc2nc(C)cc(-c3cnn4nc(OC)ccc34)n2)cc(C(F)(F)F)c1, the % of control [1] is reported as 78%.
With Cc1cc(CN)cc(C)c1-c1ncn(C)c1-c1cncn1C the dTagg [2] was 0.2 K.
Cn1cc(-n2cnc3c(NCc4nc5cc(Cl)c(Cl)cc5[nH]4)nc(N4CCOCC4)nc32)cn1 showed a % of inhibition [3] of -39.5% and a % of control [4] of -0.027%.
In the case of Cc1cc(C)cc([C@H]2c3cc(C)ccc3NC(=O)CN2C(=O)c2ccc(Br)s2)c1, the % of activity ([5]; at 1 µM) is reported as 97.7% and the % of activity ([5]; at 10 µM) is reported as 100%.
With CCN(CC)CCCCNc1ncc2cc(-c3cc(OC)cc(OC)c3)c(NC(=O)NC(C)(C)C)nc2n1 the % of control [6] was 100%.
With COCC(=O)NC/C=C/c1ccc2ncnc(Nc3ccc(Oc4ccc(C)nc4)c(C)c3)c2c1 [CP-724714] the % of control [7] was 85%.
With COc1cc(N(C)c2ccnc3ccc(C(F)(F)F)cc23)cc(OC)c1OC the % binding [8] was 100%.
C=CC(=O)Nc1cccc(C(=O)Nc2ccc(Nc3cc(-c4[nH]c(SC)nc4C)ccn3)cc2)c1 gave a % of control ([9]; at 1 µM) of 90%, a % of control ([9]; at 5 µM) of 55% and a % of control ([10]; at 1 µM) of 77%. It also gave a % of control ([10]; at 5 µM) of 81%.
With CCC(=O)N1CCN(c2ccc(-n3c(=O)ccc4cnc5ccc(-c6cnc7ccccc7c6)cc5c43)cc2C(F)(F)F)CC1 the % of control [11] was 57%, the % of control [12] was 86% and the % of control [13] was 80%.
For C=CC(=O)Nc1cc(-n2c(=O)ccc3cnc4ccc(-c5ccc(NS(C)(=O)=O)cc5)cc4c32)ccc1C, the % of control ([14]; at 1 µM) was 100% and the % of control ([14]; at 10 µM) was 40%.
Work on O[C@H]1CC[C@H](Nc2ncc3nc(Nc4c(F)cc(F)cc4F)n([C@H]4CCOC4)c3n2)CC1 yielded a % of control [15] of 90%.
Molecule CNC(=O)Nc1ccc(-c2nc(N3CC4CCC(C3)O4)c3cnn(C4CCC5(CC4)OCCO5)c3n2)cc1 has a % of control [16] of 100%.
With C=CC(=O)Nc1ccc(C(=O)Nc2[nH]nc3c2CN(C(=O)N[C@H](CN(C)C)c2ccccc2)C3(C)C)cc1 the % of engagement [17] was -9.5%.
